What follows are compounds tested against cellular cereblon (CRBN) (Homo sapiens, UniProt Q96SW2) (assay: NanoBRET Target Engagement Assay, competition with pomalidomide tracer in 293T.116 cells). Conditions: 6 hours incubation, 293T.116 cells; IP.

SMILES | NanoBRET TE 293T.116 CRBN 6 hours IP nM
Cc1cc(OC2CCC(=O)NC2=O)cc(OS(=O)(=O)F)c1 (stereo not drawn) [Compound A-20, 3-((2,6-dioxopiperidin-3-yl)oxy)-5-methylphenyl sulfurofluoridate] | *** (<= 1 μM is ***)
COc1cc(OC2CCC(=O)NC2=O)cc(OS(=O)(=O)F)c1 (stereo not drawn) [Compound A-21, 3-(3-fluorosulfonyloxy-5-methoxy-phenoxy)-2,6-dioxo-piperidine] | *** (<= 1 μM is ***)
O=C1CCC(c2cccc(OS(=O)(=O)F)c2)C(=O)N1 (stereo not drawn) [Compound A-23, 3-(2,6-dioxopiperidin-3-yl)phenyl sulfurofluoridate] | ** (<10 μM and >1 μM is **)
O=C1CCC(c2ccc(OS(=O)(=O)F)cc2)C(=O)N1 (stereo not drawn) [Compound A-25, 4-(2,6-dioxopiperidin-3-yl)phenyl sulfurofluoridate] | *** (<= 1 μM is ***)
O=C1CCC(n2c(=O)oc3c(S(=O)(=O)F)cccc32)C(=O)N1 (stereo not drawn) [Compound A-29, 3-(2,6-dioxopiperidin-3-yl)-2-oxo-2,3-dihydrobenzo[d]oxazole-7-sulfonyl fluoride] | *** (<= 1 μM is ***)

Same assay, conditions: 24 hours incubation, 293T.116 cells; IP

SMILES | NanoBRET TE 293T.116 CRBN 24 hours IP nM
Cc1cc(OC2CCC(=O)NC2=O)cc(OS(=O)(=O)F)c1 (stereo not drawn) [Compound A-20, 3-((2,6-dioxopiperidin-3-yl)oxy)-5-methylphenyl sulfurofluoridate] | *** (<= 1 μM is ***)
COc1cc(OC2CCC(=O)NC2=O)cc(OS(=O)(=O)F)c1 (stereo not drawn) [Compound A-21, 3-(3-fluorosulfonyloxy-5-methoxy-phenoxy)-2,6-dioxo-piperidine] | ** (<10 μM and >1 μM is **)
O=C1CCC(c2cccc(OS(=O)(=O)F)c2)C(=O)N1 (stereo not drawn) [Compound A-23, 3-(2,6-dioxopiperidin-3-yl)phenyl sulfurofluoridate] | ** (<10 μM and >1 μM is **)
O=C1CCC(c2ccc(OS(=O)(=O)F)cc2)C(=O)N1 (stereo not drawn) [Compound A-25, 4-(2,6-dioxopiperidin-3-yl)phenyl sulfurofluoridate] | *** (<= 1 μM is ***)
O=C1CCC(n2c(=O)oc3c(S(=O)(=O)F)cccc32)C(=O)N1 (stereo not drawn) [Compound A-29, 3-(2,6-dioxopiperidin-3-yl)-2-oxo-2,3-dihydrobenzo[d]oxazole-7-sulfonyl fluoride] | ** (<10 μM and >1 μM is **)

Same assay, conditions: NanoBRET TE 293T.116 CRBN 6 hours IC50 nM, 6 hours incubation, 293T.116 cells

SMILES | IC50 [nM]
Cc1cc(OC2CCC(=O)NC2=O)cc(OS(=O)(=O)F)c1 (stereo not drawn) [Compound A-20, 3-((2,6-dioxopiperidin-3-yl)oxy)-5-methylphenyl sulfurofluoridate] | < 1000
COc1cc(OC2CCC(=O)NC2=O)cc(OS(=O)(=O)F)c1 (stereo not drawn) [Compound A-21, 3-(3-fluorosulfonyloxy-5-methoxy-phenoxy)-2,6-dioxo-piperidine] | < 1000
O=C1CCC(c2cccc(OS(=O)(=O)F)c2)C(=O)N1 (stereo not drawn) [Compound A-23, 3-(2,6-dioxopiperidin-3-yl)phenyl sulfurofluoridate] | 1000 to 10000
O=C1CCC(c2ccc(OS(=O)(=O)F)cc2)C(=O)N1 (stereo not drawn) [Compound A-25, 4-(2,6-dioxopiperidin-3-yl)phenyl sulfurofluoridate] | < 1000
O=C1CCC(n2c(=O)oc3c(S(=O)(=O)F)cccc32)C(=O)N1 (stereo not drawn) [Compound A-29, 3-(2,6-dioxopiperidin-3-yl)-2-oxo-2,3-dihydrobenzo[d]oxazole-7-sulfonyl fluoride] | < 1000

Same assay, conditions: NanoBRET TE 293T.116 CRBN 24 hours IC50 nM, 24 hours incubation, 293T.116 cells

SMILES | IC50 [nM]
Cc1cc(OC2CCC(=O)NC2=O)cc(OS(=O)(=O)F)c1 (stereo not drawn) [Compound A-20, 3-((2,6-dioxopiperidin-3-yl)oxy)-5-methylphenyl sulfurofluoridate] | 1000 to 10000
COc1cc(OC2CCC(=O)NC2=O)cc(OS(=O)(=O)F)c1 (stereo not drawn) [Compound A-21, 3-(3-fluorosulfonyloxy-5-methoxy-phenoxy)-2,6-dioxo-piperidine] | 1000 to 10000
O=C1CCC(c2cccc(OS(=O)(=O)F)c2)C(=O)N1 (stereo not drawn) [Compound A-23, 3-(2,6-dioxopiperidin-3-yl)phenyl sulfurofluoridate] | 1000 to 10000
O=C1CCC(c2ccc(OS(=O)(=O)F)cc2)C(=O)N1 (stereo not drawn) [Compound A-25, 4-(2,6-dioxopiperidin-3-yl)phenyl sulfurofluoridate] | < 1000
O=C1CCC(n2c(=O)oc3c(S(=O)(=O)F)cccc32)C(=O)N1 (stereo not drawn) [Compound A-29, 3-(2,6-dioxopiperidin-3-yl)-2-oxo-2,3-dihydrobenzo[d]oxazole-7-sulfonyl fluoride] | 1000 to 10000

Same assay, conditions: read-out: NanoBRET TE 293T.116 CRBN 6 hours Emax

SMILES | Emax [%]
Cc1cc(OC2CCC(=O)NC2=O)cc(OS(=O)(=O)F)c1 (stereo not drawn) [Compound A-20, 3-((2,6-dioxopiperidin-3-yl)oxy)-5-methylphenyl sulfurofluoridate] | < 50
COc1cc(OC2CCC(=O)NC2=O)cc(OS(=O)(=O)F)c1 (stereo not drawn) [Compound A-21, 3-(3-fluorosulfonyloxy-5-methoxy-phenoxy)-2,6-dioxo-piperidine] | < 50
O=C1CCC(c2cccc(OS(=O)(=O)F)c2)C(=O)N1 (stereo not drawn) [Compound A-23, 3-(2,6-dioxopiperidin-3-yl)phenyl sulfurofluoridate] | < 50
O=C1CCC(c2ccc(OS(=O)(=O)F)cc2)C(=O)N1 (stereo not drawn) [Compound A-25, 4-(2,6-dioxopiperidin-3-yl)phenyl sulfurofluoridate] | < 50
O=C1CCC(n2c(=O)oc3c(S(=O)(=O)F)cccc32)C(=O)N1 (stereo not drawn) [Compound A-29, 3-(2,6-dioxopiperidin-3-yl)-2-oxo-2,3-dihydrobenzo[d]oxazole-7-sulfonyl fluoride] | < 50

Same assay, conditions: read-out: NanoBRET TE 293T.116 CRBN 24 hours Emax

SMILES | Emax [%]
Cc1cc(OC2CCC(=O)NC2=O)cc(OS(=O)(=O)F)c1 (stereo not drawn) [Compound A-20, 3-((2,6-dioxopiperidin-3-yl)oxy)-5-methylphenyl sulfurofluoridate] | < 50
COc1cc(OC2CCC(=O)NC2=O)cc(OS(=O)(=O)F)c1 (stereo not drawn) [Compound A-21, 3-(3-fluorosulfonyloxy-5-methoxy-phenoxy)-2,6-dioxo-piperidine] | < 50
O=C1CCC(c2cccc(OS(=O)(=O)F)c2)C(=O)N1 (stereo not drawn) [Compound A-23, 3-(2,6-dioxopiperidin-3-yl)phenyl sulfurofluoridate] | < 50
O=C1CCC(c2ccc(OS(=O)(=O)F)cc2)C(=O)N1 (stereo not drawn) [Compound A-25, 4-(2,6-dioxopiperidin-3-yl)phenyl sulfurofluoridate] | < 50
O=C1CCC(n2c(=O)oc3c(S(=O)(=O)F)cccc32)C(=O)N1 (stereo not drawn) [Compound A-29, 3-(2,6-dioxopiperidin-3-yl)-2-oxo-2,3-dihydrobenzo[d]oxazole-7-sulfonyl fluoride] | < 50

Source: patent US20260274856A1, “COVALENT CEREBLON LIGANDS” (C4 THERAPEUTICS, INC., priority 2023, published 2026)
